In US20220280661A1, “GLUCOCORTICOID RECEPTOR RADIOLIGANDS AND METHODS FOR THEIR PREPARATION AND USE” (The Regents of the University of California, priority 2019, published 2022):
Values joined by “and” are separate entries in the source; they are usually repeats but may differ in a detail not shown here. Equal entries are not always repeated. Where two headings read alike, the source gives them in different places.

Assays:
GR = target: T1, GR (Homo sapiens, UniProt P04150); experiment: 3H-ligand displacement assay on cells, GR (DU145); format: binding; details: for selectivity for GR over other subfamily 3 nuclear hormone receptors: relative affinity
T1 construct: evaluated using ^3H-ligand displacement assays on cells; endogenous in cells; host or cells: DU145
T1 sequence (P04150 1-777): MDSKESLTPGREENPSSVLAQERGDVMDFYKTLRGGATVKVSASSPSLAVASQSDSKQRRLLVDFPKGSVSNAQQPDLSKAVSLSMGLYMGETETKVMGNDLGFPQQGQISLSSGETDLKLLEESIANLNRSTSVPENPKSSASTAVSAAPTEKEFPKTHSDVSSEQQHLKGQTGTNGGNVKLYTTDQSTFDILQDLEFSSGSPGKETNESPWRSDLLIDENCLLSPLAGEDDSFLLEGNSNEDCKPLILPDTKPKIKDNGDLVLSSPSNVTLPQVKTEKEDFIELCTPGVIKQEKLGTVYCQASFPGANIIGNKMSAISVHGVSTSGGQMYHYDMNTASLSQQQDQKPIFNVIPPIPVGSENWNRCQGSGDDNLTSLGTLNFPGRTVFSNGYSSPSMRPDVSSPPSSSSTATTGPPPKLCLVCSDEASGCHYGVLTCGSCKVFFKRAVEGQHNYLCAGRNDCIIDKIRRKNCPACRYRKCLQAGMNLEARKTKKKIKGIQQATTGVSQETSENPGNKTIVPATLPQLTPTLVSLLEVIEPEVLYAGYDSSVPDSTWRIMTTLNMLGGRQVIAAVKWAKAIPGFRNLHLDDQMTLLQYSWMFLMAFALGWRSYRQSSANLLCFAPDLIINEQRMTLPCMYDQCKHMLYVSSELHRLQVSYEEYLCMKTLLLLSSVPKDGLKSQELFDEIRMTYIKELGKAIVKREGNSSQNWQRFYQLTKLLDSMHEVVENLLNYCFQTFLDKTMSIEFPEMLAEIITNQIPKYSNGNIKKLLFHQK
Procedure: The affinity of YJH08 for GR and the other type 1 subfamily 3 nuclear hormone receptors was evaluated using ^3H-ligand displacement assays on cells. The Kd for subfamily 3 class C nuclear hormone receptors was determined on cells by displacing ^3H-steroidal agonists for the respective receptor. […] The Kd was determined using the following cell lines: DU145 (GR), LNCaP-AR (AR), MCF7 (PR, ER), and HEK293 transiently overexpressing full length human MR.
The cold ligands and ^3H-steroids were co-incubated on cells in PBS at room temperature for one hour. Following incubation, the cells were washed twice with ice cold PBS and the unbound activity was retained for analysis. The cells were lysed with 1 mL of 1M NaOH and collected. Bound and unbound fractions were counted in a liquid scintillation counter and expressed as a percentage of the total activity added per equal relative number of cells. […] These experiments were performed at three concentrations of experimental ligand (1 pM, 100 nM and 10 μM), and a linear extrapolation was used to subtract the non-specific component of binding from each treatment condition. The specific binding component was plotted against the log of the competing ligand and curve fit using a non-linear regression algorithm with PRISM software.

[1] = from 90 min dynamic PET in C57B16/J mice
Excerpt: Normal Tissue Radiation Dose Estimation. Volumes of interest (VOIs) were drawn on coregistered CT images for brain, lungs, heart, liver, stomach, kidneys, and urinary bladder. All VOIs were either elliptical cylinder (5 mm long axis, 3 mm short axis, and 5 mm height for the brain), cylinders (3 mm diameter and 3 mm height for kidneys), or spheres (3 mm diameter for lungs, heart, liver, stomach, and urinary bladder), and they were placed well within the anatomical boundaries to minimize spill-over or spill-in of radioactivity. The mean values (in Bq/ml) in these VOIs were multiplied by standard mouse organ volumes (in ml) to estimate total activity (in Bq) within these organs. The total activity within the entire animal subtracted by all organ activities was used as activity in the remainder of the body. The percent of injected activity within the defined organs (% IA) was extrapolated to human-equivalent values using ratios of standard human organ weights to mouse organ weights.
These input % IA data for each organ and the remainder of the body were curve-fitted to derive time-integrated activity coefficients (also known as residence times) (in Bq-hr/Bq) and organ and whole-body effective doses for human equivalents were estimated using each mouse data. The data from the three animals were averaged to derive absorbed organs doses (in mGy/MBq) and whole-body effective dose (in mSv/MBq). Organ and effective dose estimations were performed using OLINDA version 2.0 using ICRP Publication 103 tissue weighting factors.
To explore the potential of (±)-^11C-YJH08 for human translation, a rodent dosimetry study was conducted in male and female C57B16/J mice ([…]). The human equivalent doses for an average adult male (73 kg) or an average adult female (60 kg) were calculated using OLINDA 2.0 incorporating ICRP103 tissue weighting factors based on region of interest analysis from 90 min dynamic PET acquisitions (Table 11). […] The values were calculated from a 90 min dynamic PET acquisition in intact male or female C57B16/J mice.

In the case of `COc1cccc2c1-c1ccc3c(c1C(Cc1ccc(F)cc1)O2)C(C)=CC(C)(C)N3` (racemic) [YJH08, 5-(4-fluorobenzyl)-10-methoxy-2,2,4-trimethyl-2,5-dihydro-1H-chromeno[3,4-f]quinoline], the “fold more potent than the agonist dexamethasone (GR)” value (GR) is reported as “about 10 fold”, the Kd (GR; DU145 cells, 3H-dexamethasone, Reference = dexamethasone, read-out: Kd GR) is reported as 0.401 nM and the Kd (GR; read-out: Kd for GR) is reported as about 0.4 nM. The “selectivity for GR over other subfamily 3 nuclear hormone receptors” value (GR) was “at least 100 fold”.

With `COc1cccc2c1-c1ccc3c(c1C(Cc1ccc([18F])cc1)O2)C(C)=CC(C)(C)N3` (racemic) [[18F]-YJH08, [^18F]-5-(4-fluorobenzyl)-10-methoxy-2,2,4-trimethyl-2,5-dihydro-1H-chromeno[3,4-f]quinoline] the “affinity for GR” value (GR; in words) was “sub nM” and the “selectivity for GR over other subfamily 3 nuclear hormone receptors” value (GR) was “at least 100 fold”.

With `CC1=CC(C)(C)Nc2ccc3c(c21)C(Cc1ccc(F)cc1)Oc1cccc(O[11CH3])c1-3` (racemic) [(±)-^11C-YJH08] the “Effective Dose (whole-body)” value ([1]; Adult female (60 kg)) was 0.0065±0.004 mSv/MBq and 0.00649 ± 0.000433 mSv/MBq, the “human equivalent absorbed dose, Adrenals” value ([1]; Adult female (60 kg)) was 0.00578 ± 0.000156 mGy/MBq and the “human equivalent absorbed dose, Brain” value ([1]; Adult female (60 kg)) was 0.00229 ± 0.000078 mGy/MBq. For the same compound, the “human equivalent absorbed dose, Breasts” value ([1]; Adult female (60 kg)) was 0.00286 ± 0.000129 mGy/MBq, the “human equivalent absorbed dose, Esophagus” value ([1]; Adult female (60 kg)) was 0.00544 ± 0.000439 mGy/MBq and the “human equivalent absorbed dose, Eyes” value ([1]; Adult female (60 kg)) was 0.00223 ± 0.000061 mGy/MBq. The “human equivalent absorbed dose, Gallbladder Wall” value ([1]; Adult female (60 kg)) was 0.00459 ± 0.000041 mGy/MBq, the “human equivalent absorbed dose, Heart Wall” value ([1]; Adult female (60 kg)) was 0.0257 ± 0.005677 mGy/MBq and the “human equivalent absorbed dose, Kidneys” value ([1]; Adult female (60 kg)) was 0.00785 ± 0.001344 mGy/MBq. The “human equivalent absorbed dose, Left colon” value ([1]; Adult female (60 kg)) was 0.00437 ± 0.000314 mGy/MBq, the “human equivalent absorbed dose, Liver” value ([1]; Adult female (60 kg)) was 0.01863 ± 0.001258 mGy/MBq and the “human equivalent absorbed dose, Lungs” value ([1]; Adult female (60 kg)) was 0.00909 ± 0.000339 mGy/MBq. The “human equivalent absorbed dose, Osteogenic Cells” value ([1]; Adult female (60 kg)) was 0.00217 ± 0.000069 mGy/MBq, the “human equivalent absorbed dose, Ovaries” value ([1]; Adult female (60 kg)) was 0.00288 ± 0.000090 mGy/MBq and the “human equivalent absorbed dose, Pancreas” value ([1]; Adult female (60 kg)) was 0.00545 ± 0.000182 mGy/MBq. For the same compound, the “human equivalent absorbed dose, Rectum” value ([1]; Adult female (60 kg)) was 0.0028 ± 0.000087 mGy/MBq, the “human equivalent absorbed dose, Red Marrow” value ([1]; Adult female (60 kg)) was 0.00289 ± 0.000101 mGy/MBq and the “human equivalent absorbed dose, Right colon” value ([1]; Adult female (60 kg)) was 0.00339 ± 0.000070 mGy/MBq. For the same compound, the “human equivalent absorbed dose, Salivary Glands” value ([1]; Adult female (60 kg)) was 0.00241 ± 0.000068 mGy/MBq, the “human equivalent absorbed dose, Small Intestine” value ([1]; Adult female (60 kg)) was 0.00325 ± 0.000114 mGy/MBq and the “human equivalent absorbed dose, Spleen” value ([1]; Adult female (60 kg)) was 0.00432 ± 0.0003 mGy/MBq. For the same compound, the “human equivalent absorbed dose, Stomach Wall” value ([1]; Adult female (60 kg)) was 0.01925 ± 0.002944 mGy/MBq, the “human equivalent absorbed dose, Thymus” value ([1]; Adult female (60 kg)) was 0.00498 ± 0.000454 mGy/MBq and the “human equivalent absorbed dose, Thyroid” value ([1]; Adult female (60 kg)) was 0.00297 ± 0.000118 mGy/MBq. The “human equivalent absorbed dose, Total Body” value ([1]; Adult female (60 kg)) was 0.00366 ± 0.000121 mGy/MBq, the “human equivalent absorbed dose, Urinary Bladder Wall” value ([1]; Adult female (60 kg)) was 0.00288 ± 0.000114 mGy/MBq and the “human equivalent absorbed dose, Uterus” value ([1]; Adult female (60 kg)) was 0.00284 ± 0.000085 mGy/MBq. For the same compound, the “Effective Dose (whole-body)” value ([1]; Adult male (73 kg)) was 0.0067±0.002 mSv/MBq and 0.00673 ± 0.002757 mSv/MBq, the “human equivalent absorbed dose, Adrenals” value ([1]; Adult male (73 kg)) was 0.00533 ± 0.000748 mGy/MBq and the “human equivalent absorbed dose, Brain” value ([1]; Adult male (73 kg)) was 0.0014 ± 0.000022 mGy/MBq. For the same compound, the “human equivalent absorbed dose, Esophagus” value ([1]; Adult male (73 kg)) was 0.00831 ± 0.004249 mGy/MBq, the “human equivalent absorbed dose, Eyes” value ([1]; Adult male (73 kg)) was 0.00194 ± 0.000092 mGy/MBq and the “human equivalent absorbed dose, Gallbladder Wall” value ([1]; Adult male (73 kg)) was 0.00602 ± 0.000876 mGy/MBq. The “human equivalent absorbed dose, Heart Wall” value ([1]; Adult male (73 kg)) was 0.06753 ± 0.05072 mGy/MBq, the “human equivalent absorbed dose, Kidneys” value ([1]; Adult male (73 kg)) was 0.00714 ± 0.000174 mGy/MBq and the “human equivalent absorbed dose, Left colon” value ([1]; Adult male (73 kg)) was 0.00374 ± 0.000769 mGy/MBq. For the same compound, the “human equivalent absorbed dose, Liver” value ([1]; Adult male (73 kg)) was 0.01568 ± 0.001377 mGy/MBq, the “human equivalent absorbed dose, Lungs” value ([1]; Adult male (73 kg)) was 0.0135 ± 0.01113 mGy/MBq and the “human equivalent absorbed dose, Osteogenic Cells” value ([1]; Adult male (73 kg)) was 0.00223 ± 0.000391 mGy/MBq. The “human equivalent absorbed dose, Pancreas” value ([1]; Adult male (73 kg)) was 0.00665 ± 0.002374 mGy/MBq, the “human equivalent absorbed dose, Prostate” value ([1]; Adult male (73 kg)) was 0.0025 ± 0.000105 mGy/MBq and the “human equivalent absorbed dose, Rectum” value ([1]; Adult male (73 kg)) was 0.00249 ± 0.000093 mGy/MBq. The “human equivalent absorbed dose, Red Marrow” value ([1]; Adult male (73 kg)) was 0.0031 ± 0.000771 mGy/MBq, the “human equivalent absorbed dose, Right colon” value ([1]; Adult male (73 kg)) was 0.00367 ± 0.000548 mGy/MBq and the “human equivalent absorbed dose, Salivary Glands” value ([1]; Adult male (73 kg)) was 0.00226 ± 0.000156 mGy/MBq. For the same compound, the “human equivalent absorbed dose, Small Intestine” value ([1]; Adult male (73 kg)) was 0.00325 ± 0.000446 mGy/MBq, the “human equivalent absorbed dose, Spleen” value ([1]; Adult male (73 kg)) was 0.00378 ± 0.000828 mGy/MBq and the “human equivalent absorbed dose, Stomach Wall” value ([1]; Adult male (73 kg)) was 0.01628 ± 0.005962 mGy/MBq. The “human equivalent absorbed dose, Testes” value ([1]; Adult male (73 kg)) was 0.00204 ± 0.000046 mGy/MBq, the “human equivalent absorbed dose, Thymus” value ([1]; Adult male (73 kg)) was 0.01004 ± 0.005999 mGy/MBq and the “human equivalent absorbed dose, Thyroid” value ([1]; Adult male (73 kg)) was 0.00355 ± 0.00107 mGy/MBq. For the same compound, the “human equivalent absorbed dose, Total Body” value ([1]; Adult male (73 kg)) was 0.00355 ± 0.000856 mGy/MBq and the “human equivalent absorbed dose, Urinary Bladder Wall” value ([1]; Adult male (73 kg)) was 0.00247 ± 0.000136 mGy/MBq.
